Data taken from patent EP2072521A1, “Octahedral metal (III) polypyridyl complexes and their use in prevention and treatment of cancer” (Freie Universität Berlin, priority 2007, dated 2009).
Where two headings read alike, the source gives them in different places. Each block holds one molecule with its values, some of them ahead of it.

What was measured:
MCF-7 breast cancer [1] = assay: Antiproliferative effects, crystal violet staining, MCF-7 cells; type: cell-based, human
Protocol: (§1) MCF-7 breast cancer and HT-29 human colon carcinoma cells were maintained in 10 % (v/v) fetal calf serum containing cell culture medium (minimum essential eagle supplemented with 2.2 g NaHCO3, 110 mg/L sodium pyruvate and 50 mg/L gentamicin sulfate adjusted to pH 7.4) at 37°C/5 % CO2 and passaged twice a week according to standard procedures. The antiproliferative effects of Rh1a - Rh5a were determined by an established procedure. Cells were suspended in cell culture medium (MCF-7: 10000 cells/mL, HT-29: 2850 cells/mL), and 100 µL aliquots thereof were plated in 96 well plates and incubated at 37°C/5 % CO2 for 72 h (MCF-7) or 48 h (HT-29). Stock solutions of the compounds in DMSO were freshly prepared and diluted with cell culture medium to the desired concentrations (final DMSO concentration: 0.1 % v/v). The medium in the plates was replaced with the medium containing the compounds in graded concentrations (six replicates). After further incubation for 96 h (MCF-7) or 72 h (HT-29) the cell biomass was determined by crystal violet staining and the IC50 values were established as those concentrations causing 50 % inhibition of cell proliferation. Results were calculated from 2 - 3 independent experiments. The results are summarized in Tab. 1 and Fig. 4. Table 1 IC50 values (µM) for the complexes mer-[RhCl3(DMSO)(pp)] Rh1a - Rh5a
(§2) The antiproliferative effects of the compounds Ir1a - Ir5a were determined as described in Example 2.

[2] = tested on: HT-29 human colon carcinoma cells; assay: Antiproliferative effects, crystal violet staining, HT-29 cells; type: cell-based
Protocol: as §1, §2

HT-29 = assay: Cellular uptake of iridium (GF-AAS), HT-29 cells; type: cell-based, human; conditions: 6 h, 0.0: value below the detection limit; for HT-29 uptake 10 µM: 10 µM complex; for HT-29 uptake 100 µM: 100 µM complex
Protocol: (§3) For cellular uptake studies, HT-29 and MCF-7 cells were grown until at least 70 % confluency in 175 cm^2 cell culture flasks. Stock solutions of complexes Ir1a - Ir5a in DMSO were freshly prepared and diluted with cell culture medium to the desired concentrations (final DMSO concentrations: 0.1 % v/v, final complex concentration: 10 or 100 µM). The cell culture medium of the cell culture flasks was replaced with 10 mL of the cell culture medium solutions containing Ir1a - Ir5a (10 µM or 100 µM) and the flasks were incubated for 6 h at 37°C/5 % CO2. The cell pellets were isolated, resuspended in 1 - 5 mL […], lysed by using a sonotrode and approximately diluted using twice distilled water. The iridium content of the samples was determined by graphite furnace atomic absorption spectroscopy (GF-AAS) and the protein content of separate aliquots by the Bradford method. To correct for matrix effects in GF-AAS measurements, samples and standards were adjusted to the same protein concentration by dilution with twice distilled water. Prior to GF-AAS analysis 20 µL triton X-100 (1 %) and 20 µL hydrochloric acid were added to each 200 µL sample of the cell suspensions. Cellular uptake was expressed as ng iridium per mg cell protein for data obtained from 3 independent experiments. Conversion of the ng iridium/mg protein value to the micromolar cellular concentration was performed as described previously.
(§4) A Vario 6 graphite furnace atomic absorption spectrometer (Analytik Jena) was employed for the lr quantification using a wavelength of 208.9 nm with a bandpass of 0.5 nm. A deuterium lamp was used for background correction. Matrix containing standards were obtained by addition of an iridium stock solution (1 mg/mL lr in 5 % HCl). 18 % hydrochloric acid solution was employed as a modifier. Probes were injected at a volume of 25 µL into graphite tubes. The detection limit for the method was 3.8 µg Ir L^-1. The mean AUC (area under curve) absorptions of duplicate injections were used throughout the study.

MCF-7 cells = assay: Cellular uptake of iridium (GF-AAS), MCF-7 cells; type: cell-based, human; conditions: 6 h; for MCF-7 uptake 10 µM: 10 µM complex, 0.0: value below the detection limit; for MCF-7 uptake 100 µM: 100 µM complex
Protocol: as §3, §4

[3] = references [3], [4]; cited from earlier work
tumour cell lines = conditions: references [7, 8]; cited from earlier work
[4] = Stability and isomerization in solution (1H NMR); type: physicochemical; conditions: in DMSO
LoVo (colon carcinoma) = conditions: Mestroni et al. [1]; cited from earlier work
[5] = tested on: A 2780 (ovarian carcinoma); conditions: Mestroni et al. [1]; cited from earlier work
Calu (lung carcinoma) = conditions: Mestroni et al. [1]; cited from earlier work
MCF-7 breast cancer [6] = conditions: references [5, 6]; cited from earlier work
[7] = tested on: HT-29 human colon carcinoma cells; conditions: references [5, 6]; cited from earlier work
mouse P 388 leukemia = conditions: reference [2]; cited from earlier work
[8] = Table 2, determined as described in Example 2
[9] = Table 1, 96 h incubation, 2 - 3 independent experiments, spread in parentheses
[10] = Table 1, 72 h incubation, 2 - 3 independent experiments, spread in parentheses

IC50 (MCF-7 breast cancer [1]; Homo sapiens, MCF7, Table 1, 96 h incubation, 2 - 3 independent experiments, spread in parentheses): 800 nM
IC50 (MCF-7 breast cancer [1]; Homo sapiens, MCF7, Table 2, determined as described in Example 2): 800 nM
IC50 ([2]; Homo sapiens, HT-29, Table 1, 72 h incubation, 2 - 3 independent experiments, spread in parentheses): 1800 nM
IC50 ([2]; Homo sapiens, HT-29, Table 2, determined as described in Example 2): 1800 nM
Molecule: c1ccc2nc3c4cccnc4c4ncccc4c3nc2c1 [dppz, dipyrido[3,2-a:2',3'-c]phenazine, reference compound]

IC50 (MCF-7 breast cancer [1]; [9]): 95 nM
IC50 [2, 10]: 73 nM
Molecule: mer-[RhCl3(DMSO)(dppz)]·1.5H2O [Rh4a]

IC50 (MCF-7 breast cancer [1]; [9]): 400 nM
IC50 [2, 10]: 190 nM
Molecule: mer-[RhCl3(DMSO)(phen)]·H2O [Rh2a]
isomerization [4]: isomerize rapidly to a mixture of fac- and mer-isomers

IC50 (MCF-7 breast cancer [1]; [8]): 210 nM
IC50 [2, 8]: 1300 nM
Molecule: fac-[IrCl3(DMSO)(dppn)]·2CH3OH [Ir5a]
MCF-7 uptake 10 µM (MCF-7 cells): 19.3(0.8) ng Ir/mg protein
MCF-7 uptake 100 µM (MCF-7 cells): 180.8(2.7) ng Ir/mg protein
HT-29 uptake 10 µM (HT-29): 37.4(8.9) ng Ir/mg protein
HT-29 uptake 100 µM (HT-29): 226.1(26.6) ng Ir/mg protein

IC50 (MCF-7 breast cancer [1]; [9]): 79 nM
IC50 [2, 10]: 69 nM
Molecule: mer-[RhCl3(DMSO)(dpq)] [Rh3a]

IC50 (MCF-7 breast cancer [1]; [9]): 51 nM
IC50 [2, 10]: 70 nM
Molecule: mer-[RhCl3(DMSO)(dppn)] [Rh5a]

IC50 (MCF-7 breast cancer [1]; [9]): 4000 nM
IC50 [2, 10]: 1900 nM
Molecule: mer-[RhCl3(DMSO)(bpy)] [Rh1a]
isomerization [4]: isomerize rapidly to a mixture of fac- and mer-isomers

More lines, now with the values behind:

Molecule: [(η^5-C5Me5)Ir{(Me2N)2CS}(dppn)](CF3SO3) [compound 7, reference compound]
IC50 (MCF-7 breast cancer [1]; [8]): 170 nM
IC50 [2, 8]: 410 nM
HT-29 uptake 10 µM (HT-29): 149.6(7.8) ng Ir/mg protein

Molecule: fac-[IrC/3(DMSO)(dpq)·3H2O [Ir3a]
IC50 (MCF-7 breast cancer [1]; [8]): 5500 nM
IC50 [2, 8]: 6100 nM
MCF-7 uptake 10 µM (MCF-7 cells): 0.3(0.3) ng Ir/mg protein
MCF-7 uptake 100 µM (MCF-7 cells): 640.5(148.9) ng Ir/mg protein
HT-29 uptake 10 µM (HT-29): 0.0 ng Ir/mg protein
HT-29 uptake 100 µM (HT-29): 167.8(3.4) ng Ir/mg protein

Molecule: [Rh(Im)(tpy)2]Cl·3H2O
cytotoxicity [3]: exhibit cytotoxicity

Molecule: C1CSCCSCCN1.[Cl][Rh]([Cl])[Cl] [fac-[RhCl3(9-[ane]-NS2)]]
cytotoxicity [3]: exhibit cytotoxicity

Molecule: [(DMSO)2H] [[(DMSO)2H] [trans-IrCl4(DMSO)2]]
biological activity (tumour cell lines): biologically inactive

Molecule: fac-[IrCl3(DMSO)(bpy)·2H2O [Ir1a]
IC50 (MCF-7 breast cancer [1]; [8]): > 100000 nM
IC50 [2, 8]: > 100000 nM
HT-29 uptake 10 µM (HT-29): 0.0 ng Ir/mg protein
HT-29 uptake 100 µM (HT-29): 0.0 ng Ir/mg protein

Molecule: [Cl][Rh]([Cl])[Cl].c1ccc(-c2cccc(-c3ccccn3)n2)nc1 [mer-[RhCl3(tpy)]]
cytotoxicity [3]: exhibit cytotoxicity

Molecule: mer,cis-[RhCl3(DMSO-κS)(Im)2]
IC50 (LoVo (colon carcinoma)): 40000 ± 15000 nM
IC50 [5]: > 200000 nM
IC50 (Calu (lung carcinoma)): > 200000 nM

Molecule: [(η^5-C5Me5)IrCl(dppz)](CF3SO3) [compound 6, reference compound]
IC50 (MCF-7 breast cancer [1]; [8]): 2300 nM
IC50 [2, 8]: 7400 nM
IC50 (MCF-7 breast cancer [6]): 2300 nM
IC50 [7]: 7400 nM
HT-29 uptake 10 µM (HT-29): 70.4(1.0) ng Ir/mg protein

Molecule: CO.C[S+](C)(=O)[Ir-3]1([Cl])([Cl])([Cl])[n+]2cccc3ccc4ccc[n+]1c4c32.O [Ir2a, fac-[IrCl3(DMSO)(phen)]·CH3OH·H2O]
IC50 (MCF-7 breast cancer [1]; [8]): 4600 nM
IC50 [2, 8]: 4600 nM
MCF-7 uptake 10 µM (MCF-7 cells): 0.0 ng Ir/mg protein
MCF-7 uptake 100 µM (MCF-7 cells): 74.4(13.5) ng Ir/mg protein
HT-29 uptake 10 µM (HT-29): 0.0 ng Ir/mg protein
HT-29 uptake 100 µM (HT-29): 21.2(5.2) ng Ir/mg protein

Molecule: N.N.[Cl][Pt][Cl] [Cisplatin, reference compound]
IC50 (MCF-7 breast cancer [1]; [9]): 2000 nM
IC50 (MCF-7 breast cancer [1]; [8]): 2000 nM
IC50 [2, 10]: 7000 nM
IC50 [2, 8]: 7000 nM

Molecule: [ImH][trans-IrCl4(DMSO)(Im)]
biological activity (tumour cell lines): biologically inactive

Molecule: [Cl][Ir-]([Cl])([Cl])[Cl].c1c[nH+]c[nH]1.c1c[nH]cn1.c1c[nH]cn1 [[ImH][trans-IrCl4(Im)2]]
biological activity (tumour cell lines): biologically inactive

Molecule: mer,cis-[RhCl3(DMSO-κS)(py)2]
Activity against mouse P 388 leukemia (mouse P 388 leukemia): Activity

Molecule: fac-[IrC/3(DMSO)(dppz)]·2H2O [Ir4a]
IC50 (MCF-7 breast cancer [1]; [8]): 800 nM
IC50 [2, 8]: 1500 nM
MCF-7 uptake 10 µM (MCF-7 cells): 3.3(3.3) ng Ir/mg protein
MCF-7 uptake 100 µM (MCF-7 cells): 644.0(149.1) ng Ir/mg protein
HT-29 uptake 10 µM (HT-29): 11.9(3.0) ng Ir/mg protein
HT-29 uptake 100 µM (HT-29): 1664.4(473.1) ng Ir/mg protein
